Legend:
Type in all cases: cell-based
[1] = tested on: HCC827-SVD cells (human EGFR exon 20 insertion mutant D770_N771 insSVD); assay: Cell growth inhibition (CellTiter-Glo, 3 days) in HCC827-SVD; settings: 72 h, 3 days after administration
Method: (§1) 1. Preparation of HCC827-SVD, HCC827-ASV and HCC827-YVMA Cell Lines
HCC827-SVD cell line were generated by first transducing HCC827 cells (ATCC) with lentiviral particles expressing codon-optimized human EGFR exon 20 insertion mutant D770_N771 insSVD, and then selecting under 5 μg/ml purimycin treatment for a week.
The resulting cells were further transduced with lentiviral particles carrying EGFR sgRNA and CAS9 to knockout the endogenous alleles of EGFR, and then selected under 500 μg/ml hygromycin B treatment for two weeks. Single clone was subsequently generated by limiting dilution approach. Endogenous EGFR knockout was confirmed by Sanger sequencing of cell genomic DNA and expression of exogenous mutant EGFR was verified by Western blot analysis.
(§2) 2. Cell Growth Inhibition for HCC827, HCC827-SVD, HCC827-ASV, HCC827-YVMA and A431.
(§3) HCC827(ATCC), HCC827-SVD, HCC827-ASV, HCC827-YVMA were seeded in 96-well plates at 5000 cells/well in 90 μl of RPMI growth medium containing 10% FBS and 1% Penicillin Streptomycin. A431 (ATCC) cells were seed in 96-well plates at 5000 cells/well in 90 μl of DMEM growth medium containing 10% FBS and 1% Penicillin Streptomycin. Cells were incubated at 3700 overnight. The following day, the test compound was administered to the cells by using 1 Ox compound stock solution prepared in growth medium at various concentrations. After administration of the compound, cells were then incubated at 3700 for 3 days. Before CeIlTiter-Glo assay, the plates were equilibrated at room temperature for approximately 10 minutes. 100 ul of CelTiter-Glo® Reagent (Promega) was added to each well. The plates were then incubated at room temperature for 10 minutes and luminescence was recorded by EnSpire plate reader (PerkinElmer).

[2] = tested on: HCC827-ASV cells (human EGFR exon 20 insertion mutant A769_D770insASV); assay: Cell growth inhibition (CellTiter-Glo, 3 days) in HCC827-ASV; settings: 72 h, 3 days after administration
Excerpt: as §1
(§4) HCC827-ASV and HCC827-YVMA cell lines were generated in the similar approach as HCC827-SVD except that HCC827 cells (ATCC) were first transduced with lentiviral particles expressing codon-optimized human EGFR exon 20 insertion mutant A769_D770insASV and human ERBB2 exon20 insertion mutant A775_G776ins YVMA, respectively.
as §2, §3

[3] = tested on: HCC827-YVMA cells (human ERBB2 exon20 insertion mutant A775_G776ins YVMA); assay: Cell growth inhibition (CellTiter-Glo, 3 days) in HCC827-YVMA; settings: 72 h, 3 days after administration
Excerpt: as §1, §4, §2, §3

A431 cells = assay: Cell growth inhibition (CellTiter-Glo, 3 days) in A431; settings: Homo sapiens, A-431, 72 h, 3 days after administration
Method: as §2, §3

HCC827 cells = assay: Cell growth inhibition (CellTiter-Glo, 3 days) in HCC827; settings: Homo sapiens, 72 h, 3 days after administration
Method: as §2, §3

Structure (SMILES)	GI50 [1] [nM]	GI50 [2] [nM]	GI50 [3] [nM]	GI50 (A431 cells) [nM]	GI50 (HCC827 cells) [nM]
C=CC(=O)N1CCC(Nc2cc3c(Nc4ccc(Oc5ccn(-c6cnc(OC)nc6)n5)cc4F)ncnc3cc2OC)CC1 [Compound 1, 1-(4-((4-((2-fluoro-4-((1-(2-methoxypyrimidin-5-yl)-1H-pyrazol-3-yl)oxy)phenyl)amino)-7-methoxyquinazolin-6-yl)amino)piperidin-1-yl)prop-2-en-1-one]	60 to 100	30 to 60	60 to 100	300 to 600	300 to 600
C=CC(=O)N1CCC(Nc2cc3c(Nc4ccc(Oc5ccn(-c6cnc(C)c(F)c6)n5)cc4F)ncnc3cc2OC)CC1 [Compound 2, 1-(4-((4-((2-fluoro-4-((1-(5-fluoro-6-methylpyridin-3-yl)-1H-pyrazol-3-yl)oxy)phenyl)amino)-7-methoxyquinazolin-6-yl)amino)piperidin-1-yl)prop-2-en-1-one]	< 30	< 30	< 30	60 to 100	< 30
C=CC(=O)N1CCC(Nc2cc3c(Nc4ccc(Oc5ccn(-c6ccc(C)nc6)n5)cc4F)ncnc3cc2OC)CC1 [Compound 3, 1-(4-((4-((2-fluoro-4-((1-(6-methylpyridin-3-yl)-1H-pyrazol-3-yl)oxy)phenyl)amino)-7-methoxyquinazolin-6-yl)amino)piperidin-1-yl)prop-2-en-1-one]	60 to 100	30 to 60	30 to 60	100 to 300	300 to 600
C=CC(=O)N1CCC(Nc2cc3c(Nc4ccc(Oc5nc(-c6nnc(C(C)C)o6)cs5)cc4F)ncnc3cc2OC)CC1 [Compound 4, 1-(4-((4-((2-fluoro-4-((4-(5-isopropyl-1,3,4-oxadiazol-2-yl)thiazol-2-yl)oxy)phenyl)amino)-7-methoxyquinazolin-6-yl)amino)piperidin-1-yl)prop-2-en-1-one]	100 to 300	100 to 300	100 to 300	300 to 600	300 to 600
C=CC(=O)N1CCC(Nc2cc3c(Nc4ccc(Oc5ncc(-c6ccc(C)nc6)s5)cc4F)ncnc3cc2OC)CC1 [Compound 5, 1-(4-((4-((2-fluoro-4-((5-(6-methylpyridin-3-yl)thiazol-2-yl)oxy)phenyl)amino)-7-methoxyquinazolin-6-yl)amino)piperidin-1-yl)prop-2-en-1-one]	100 to 300	100 to 300	100 to 300	300 to 600	100 to 300
C=CC(=O)N1CCC(Nc2cc3c(Nc4ccc(Oc5nc(-c6ccc(C)nc6)cs5)cc4F)ncnc3cc2OC)CC1 [Compound 6, 1-(4-((4-((2-fluoro-4-((4-(6-methylpyridin-3-yl)thiazol-2-yl)oxy)phenyl)amino)-7-methoxyquinazolin-6-yl)amino)piperidin-1-yl)prop-2-en-1-one]	300 to 600	300 to 600	300 to 600	300 to 600	≥ 1000
C=CC(=O)N1CCC(Nc2cc3c(Nc4ccc(Oc5ccn6ncnc6c5)c(Cl)c4)ncnc3cc2OC)CC1 [Compound 7, 1-(4-((4-((4-([1,2,4]triazolo[1,5-a]pyridin-7-yloxy)-3-chlorophenyl)amino)-7-methoxyquinazolin-6-yl)amino)piperidin-1-yl)prop-2-en-1-one]	< 30	< 30	< 30	< 30	< 30
C=CC(=O)N1CC[C@H](Nc2cc3c(Nc4ccc(Oc5ccn(-c6cnc(OC)nc6)n5)cc4F)ncnc3cc2OC)C1 [Compound 8, (S)-1-(3-((4-((2-fluoro-4-((1-(2-methoxypyrimidin-5-yl)-1H-pyrazol-3-yl)oxy)phenyl)amino)-7-methoxyquinazolin-6-yl)amino)pyrrolidin-1-yl)prop-2-en-1-one]	30 to 60	100 to 300	30 to 60	300 to 600	100 to 300
C=CC(=O)N1CC[C@@H](Nc2cc3c(Nc4ccc(Oc5ccn(-c6cnc(OC)nc6)n5)cc4F)ncnc3cc2OC)C1 [Compound 9, (R)-1-(3-((4-((2-fluoro-4-((1-(2-methoxypyrimidin-5-yl)-1H-pyrazol-3-yl)oxy)phenyl)amino)-7-methoxyquinazolin-6-yl)amino)pyrrolidin-1-yl)prop-2-en-1-one]	≥ 1000	≥ 1000	≥ 1000	≥ 1000	≥ 1000
C=CC(=O)N1CCC(Nc2cc3c(Nc4ccc(Oc5ccn(-c6cnc(C)c(Cl)c6)n5)cc4F)ncnc3cc2OC)CC1 [Compound 10, 1-(4-((4-((4-((1-(5-chloro-6-methylpyridin-3-yl)-1H-pyrazol-3-yl)oxy)-2-fluorophenyl)amino)-7-methoxyquinazolin-6-yl)amino)piperidin-1-yl)prop-2-en-1-one]	< 30	< 30	< 30	300 to 600	30 to 60
C=CC(=O)N1CCC(Nc2cc3c(Nc4ccc(Oc5ccn(-c6cnc(C)c(C#N)c6)n5)cc4F)ncnc3cc2OC)CC1 [Compound 11, 5-(3-(4-((6-((1-acryloylpiperidin-4-yl)amino)-7-methoxyquinazolin-4-yl)amino)-3-fluorophenoxy)-1H-pyrazol-1-yl)-2-methylnicotinonitrile]	30 to 60	30 to 60	60 to 100	100 to 300	60 to 100
C=CC(=O)N1CCC(Nc2cc3c(Nc4ccc(Oc5ccn(-c6ccc(OC)nc6)n5)cc4F)ncnc3cc2OC)CC1 [Compound 12, 1-(4-((4-((2-fluoro-4-((1-(6-methoxypyridin-3-yl)-1H-pyrazol-3-yl)oxy)phenyl)amino)-7-methoxyquinazolin-6-yl)amino)piperidin-1-yl)prop-2-en-1-one]	< 30	< 30	< 30	100 to 300	30 to 60
C=CC(=O)N1CCC(Nc2cc3c(Nc4ccc(Oc5ccn(-c6cnc(C)c(F)c6)n5)cc4F)ncnc3cc2OCC)CC1 [Compound 13, 1-(4-((7-ethoxy-4-((2-fluoro-4-((1-(5-fluoro-6-methylpyridin-3-yl)-1H-pyrazol-3-yl)oxy)phenyl)amino)quinazolin-6-yl)amino)piperidin-1-yl)prop-2-en-1-one]	< 30	< 30	< 30	300 to 600	< 30
C=CC(=O)N1CCC(Nc2cc3c(Nc4ccc(Oc5ccn(-c6ccc(C)cn6)n5)cc4F)ncnc3cc2OC)CC1 [Compound 14]	100 to 300	100 to 300	60 to 100	60 to 100	60 to 100
C=CC(=O)N1CCC(Nc2cc3c(Nc4ccc(Oc5ccn(-c6cc(F)c(C)cn6)n5)cc4F)ncnc3cc2OC)CC1 [Compound 15, 1-(4-((4-((2-fluoro-4-((1-(4-fluoro-5-methylpyridin-2-yl)-1H-pyrazol-3-yl)oxy)phenyl)amino)-7-methoxyquinazolin-6-yl)amino)piperidin-1-yl)prop-2-en-1-one]	100 to 300	100 to 300	60 to 100	100 to 300	100 to 300
C=CC(=O)N1CCC(Nc2cc3c(Nc4ccc(Oc5ccn(-c6ccc(C)cn6)n5)c(Cl)c4)ncnc3cc2OC)CC1 [Compound 16]	< 30	< 30	< 30	300 to 600	< 30
COc1cc2ncnc(Nc3ccc(Oc4ccn(-c5cnc(C)c(F)c5)n4)cc3F)c2cc1NC1CCN(C(=O)/C=C/CN(C)C)CC1 [Compound 21, (2E)-4-(dimethylamino)-1-[4-({4-[(2-fluoro-4-{[1-(5-fluoro-6-methylpyridin-3-yl)pyrazol-3-yl]oxy}phenyl)amino]-7-methoxyquinazolin-6-yl}amino)piperidin-1-yl]but-2-en-1-one]	≥ 1000	≥ 1000	300 to 600	≥ 1000	≥ 1000
C=CC(=O)N1CC[C@H](Oc2cc3c(Nc4ccc(Oc5ccn(-c6cnc(OC)nc6)n5)cc4F)ncnc3cc2OC)C1 [Compound 81, (S)-1-(3-((4-((2-fluoro-4-((1-(2-methoxypyrimidin-5-yl)-1H-pyrazol-3-yl)oxy)phenyl)amino)-7-methoxyquinazolin-6-yl)oxy)pyrrolidin-1-yl) prop-2-en-1-one]	100 to 300			300 to 600	300 to 600
